Data on 3 compounds can be found in article PMC4674680, “An in cellulo-derived structure of PAK4 in complex with its inhibitor Inka1” (Nature Communications, 2015).

No end group written: not given here.

One test concerns PAK4. The settings on record: binds in vitro; ATP-competitive; cited from earlier work. As for the experimental part: As the Flag-iBox-PAK4 crystal structure contained bound ATP, which is stabilized by the Inka1 inhibitory peptide (Fig. 3a), we were interested on the effect of the ATP-competitive PAK4 inhibitor PF-03758309, which binds with 10 nM affinity in vitro[45]. […] Thus, PF-03758309 appears to allow PAK4cat to incorporate with sub-stoichiometric levels of GFP–Inka1, consistent with PF-03758309 either reducing the affinity of GFP–Inka1 or allowing PAK4cat inco ...

The subject of test [1] is GFP–Inka1:PAK4cat co-crystals. Description: Live imaging of growing GFP-Inka1:PAK4cat crystals, effect of PF-03758309. Format: cell-based. As for the experimental part:
Live cell imaging of crystal growth and SIM and confocal microscopy
The cells were plated at 50% confluence glass cover slips overnight: plasmid transfection used GFP–iBox–Pak4cat and FLAG–iBox–Pak4cat constructs at a ratio of 4:1, to promote crystal nucleation. The cover slips were transferred to a Chamlide magnetic chamber (Live Cell Instruments, Seoul, Korea) with 5% CO2 at 37 °C for live imaging on an Zeiss Axiovert 200 M live-cell imaging with a × 10 objective. We imaged multiple chosen regions for 8 h at 6-min intervals. To measure crystal growth rate, we used instead a Nikon Eclipse Ti microscope equipped with spinning disk confocal attachment (Yokogawa CSU-22 module) to avoid photo-damage. The cells were imaged at × 60 1.4 numerical aperture (NA) objective at 2-min intervals. For SIM and confocal imaging, cells were fixed in non-hardening mounting media (Vectashield). The slides were imaged by Delta vision OMX SIM with a × 100 1.4 NA objective. […] The three-dimensional stacks were analysed by IMARIS software.

The target in test [2] is T1, PAK4cat (Homo sapiens, UniProt O96013). The experiment in a line: In-cellulo crystal formation with PAK4cat. Format: cell-based. The arrangement: PAK4 (286–591). Conditions: transfected mammalian cells. How it is done:
Generation and harvesting of intracellular PAK4 crystals
COS-7, HeLa, HEK293 or U2OS cells (35-mm culture dish or glass coverslip) were typically transfected with 2.5 μg of each plasmid in 2 ml of media using Lipofectamine 2000 (Invitrogen) or the GenomeONE Neo EX haemagglutinating virus of Japan envelope transfection kit (Cosmo Bio Co. Ltd) as per the manufacturer's protocol. Crystals were observed by phase-contrast microscopy using a × 10 objective (Nikon Eclipse TE300) 1–4 days post transfection. The structure of Flag–iBox–PAK4cat (Figs 2 and 3) was determined from crystals grown in COS-7 cells. The cells were harvested 3 days after transfection by incubating in PBS with 0.125% (w/v) trypsin and 25% (v/v) glycerol (Merck) for 30 min. Individual cells containing single crystals were then mounted in 0.1–0.2 mm cryoloops (Hampton Research) and flash cooled in liquid nitrogen.

The target in test [3] is T1, PAK4cat. Description: In-vitro kinase assay, PAK4cat (phosphorylation of GST-Raf13). It counts as biochemical. The arrangement: PAK1 (1–545) and PAK4 (286–591), respectively; 6His (N); made in house; host or cells: Escherichia coli BL21-CodonPlus(DE3). The settings on record: Fig. 1d; n=3; IC50 from intercepts of the graphs; PAK 50 nM, 10 μM GST-Raf1S338, 10 μM ATP (γ32P), pH 7.3, 30 °C 20 min; peptide preincubated on ice 10 min. How it is done: Purified PAK1 or PAK4 (50 nM in 25–50 μl) were incubated with 10 μM GST-Raf1S338 peptide in 10 μM ATP (2 μCi of γ32P ATP) of kinase buffer (25 mM HEPES, pH 7.3, 0.1% Triton X-100, 50 mM KCl, 10 mM MgCl2, 1 mM dithiothreitol) at 30 °C for 20 min. Samples were analysed by SDS–PAGE or adsorption of the GST substrate mix onto polyvinylidene difluoride membranes, followed by extensive washing to remove free γ32P-ATP. The synthetic peptides of 95% purity, as determined by HPLC and mass spectrometric analyses (GenScript), were soluble in aqueous PBS. Stock solutions (10 mM) were quantified via calculated extinction coefficients and absorbance measurements at 280 nm and stored at −80 °C. The diluted peptides were incubated at the indicated concentrations with the kinase on ice (10 min) before addition of γ32P ATP and subsequent incubation at 30 °C. The synthetic peptide array (Jerini Biotools) was phosphorylated in situ as described previously.

T1 sequence (O96013 286-591): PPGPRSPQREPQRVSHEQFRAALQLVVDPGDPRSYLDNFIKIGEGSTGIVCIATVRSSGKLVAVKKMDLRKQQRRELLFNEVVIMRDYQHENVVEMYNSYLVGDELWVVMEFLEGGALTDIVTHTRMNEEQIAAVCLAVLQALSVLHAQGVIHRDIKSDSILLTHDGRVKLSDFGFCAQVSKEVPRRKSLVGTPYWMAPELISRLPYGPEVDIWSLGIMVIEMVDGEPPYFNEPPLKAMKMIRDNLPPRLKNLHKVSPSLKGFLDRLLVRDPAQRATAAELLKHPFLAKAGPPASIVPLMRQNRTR

Regarding `Cc1nc(Nc2[nH]nc3c2CN(C(=O)N[C@H](CN(C)C)c2ccccc2)C3(C)C)c2sccc2n1` [PF-03758309], in the test on PAK4, the affinity is recorded as 10 nM. The “Effect on crystal GFP signal, in words” value in test [1] (5 μM PF-03758309, elongation phase) is listed as “depleted of GFP signal”. Further, the “Effect on crystal growth rate, in words” value in test [1] (after PF3758309 addition (5 μM), Fig. 6d) is given as “Crystal growth slowed”. In the case of “Inka1 (255–285): C-terminal 31 amino acid of Inka1 (RPEPELPADVSRFAALMSCRSRQPIICNDVS; UniProt Q96EL1 255-285, looked up, fragment)”, in the test with PAK4cat [2], the “Induction of intracellular crystals with PAK4cat, in words” value is “able to induce crystals more efficiently than the Inka1 (166–203)”. At PAK4cat [3], RGRSRQPLVLGDNC [iBox14] yielded an IC50 of 5 µM.
